Laboratory results published in patent US20140331363A1, “PLANTS WITH ALTERED GLUCURONOXYLAN METHYL TRANSFERASE ACTIVITY AND METHODS OF USE” (UNIVERSITY OF GEORGIA RESEARCH FOUNDATION, INC., priority 2011, published 2014).
One block for each compound: values may come before it.

Experiments:
GXMT1 [1] = target: T1, GXMT1 (Arabidopsis thaliana, UniProt Q9LQ32); experiment: GXMT1 4-O-methyltransferase activity of metal-depleted enzyme, SAH formation by LC-ESI-MS; format: biochemical; conditions: for effect on GXMT1 enzyme activity: metal salts or EDTA at 1 mM, metal-depleted GXMT1
T1 construct: made in house; host or cells: E. coli BL21-CodonPlus (DE3)-RIPL, pGEX-5X1 vector
T1 sequence (Q9LQ32 44-297): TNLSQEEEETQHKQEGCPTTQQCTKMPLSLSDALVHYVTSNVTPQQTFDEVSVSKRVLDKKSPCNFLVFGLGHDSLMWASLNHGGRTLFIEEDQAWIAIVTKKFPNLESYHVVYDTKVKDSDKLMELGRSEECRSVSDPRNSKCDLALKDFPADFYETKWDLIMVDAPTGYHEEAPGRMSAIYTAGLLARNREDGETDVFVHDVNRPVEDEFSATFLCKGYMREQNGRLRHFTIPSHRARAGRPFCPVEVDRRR
Procedure: The transfer of a methyl group from SAM to GlcA results in the formation of S-adenosyl homocysteine (SAH). The amounts of SAH formed were determined by LC-ESI-MS (Salyan et al., 2006, Anal Biochem 349:112-117). (B) The effect on GXMT activity of different divalent metals. Protein and buffer solutions were treated with Chelex-100 resin to remove divalent cations prior to initiating the methylation reaction. Metal salts or EDTA were used at a concentration of 1 mM. […] Reaction mixtures were allowed to equilibrate to the specified temperature for 30 min and then the methylation reaction was initiated by the addition of SAMe (15 mM).
Determination of methyltransferase activity using LC-ESI-MS. Glucuronoxylan 4-O-methyltransferase activity was determined using a liquid chromatography-electrospray ionization/mass spectroscopy (LC-ESI-MS) method using selective reaction monitoring (SRM) that measures the formation of S-adenosylhomocysteine from SAM (S17). LC-ESI-MS analyses were performed on a LTQ-XL linear ion trap mass spectrometer (ThermoFisher, Waltham, Mass.) equipped with a Surveyor MS Pump Plus HPLC, a Surveyor Autosampler Plus. Chromatographic separation was as described (Salyan et al., 2006, Anal Biochem 349:112-117). S-adenosylhomocysteine (SAH) eluted at 3.2 min. Thus, the material eluting between 2.5 and 5 min was transferred to the mass spectrometer using an in-line divert/inject valve. The selected reaction monitoring transition used was 385.1>250.1 with a collision energy of 20%. The detection limit was 60.25 nM S-adenosylhomocysteine with a linear response up to 3 μM. […]

GXMT1 [2] = target: T1, GXMT1; experiment: GXMT1 methyltransferase activity monitored by 1H NMR (GlcA methylation of gxmt1-1 glucuronoxylan); format: biochemical
Procedure: FIG. 12. […] After 48 hours the products formed were treated with endoxylanase and the resulting oligosaccharides were characterized by ^1H NMR spectroscopy. The extent of GlcA methylation was determined by integration of the GlcA (U) and 4-O-methyl GlcA (M) H1 signals (see FIG. 1B).
Determination of Methyltransferase Activity using ^1H-NMR Spectroscopy and LC-ESI-MS. The temperature optimum for GXMT1 activity was between 19-25° C. (FIG. 10C). The transfer of methyl groups to O-4 of GlcA was established by ^1H NMR spectroscopy. Assays were performed at 23° C. in 50 mM potassium bicarbonate, pH 7.5, (250 μL) containing acceptor substrate equivalent to 2.27 mM available GlcA residues, recombinant GXMT1 (10 μM), CoCl2 (2 mM) and 1.5 mM S-adenosyl-L-methionine sulfate p-toluenesulfonate, unless otherwise indicated. The formation of SAH from SAM was determined using LC-ESI-MS (Salyan et al., 2006, Anal Biochem 349:112-117). […] Details of both assays are in Example 2.
Monitoring methyltransferase activity by ^1H-NMR spectroscopy. […] The dry reaction products were dissolved in 0.25 mL D2O and analyzed by ^1H-NMR spectroscopy. Spectra were recorded before and after endoxylanase treatment, when polymeric xylan was used as a substrate.

SMILES: [Cl-].[Cl-].[Co+2] [Co^2+]
enhancement of GXMT1 activity (GXMT1 [1]; metal salts at 1 mM, metal-depleted GXMT1 3.4 μM, 180 min, average): 1,180%

effect on GXMT1 enzyme activity (GXMT1 [1]): completely inhibited
SMILES: [Cu+2] [Cu^2+]

SMILES: O=C(O)CN(CCN(CC(=O)O)CC(=O)O)CC(=O)O [EDTA]
effect on GXMT1 enzyme activity (GXMT1 [1]): completely inhibited

reduction of O-methyl transferase activity (GXMT1 [2]; 1.5 mM SAH with SAM, 10 μM GXMT1, 48 hours): over 50%
effect on in vitro GXMT1 activity (GXMT1 [2]; SAH added at the start of the reaction): inhibited
SMILES: Nc1ncnc2c1ncn2[C@@H]1O[C@H](CSCC[C@H](N)C(=O)O)[C@@H](O)[C@H]1O [SAH, S-adenosyl-L-homocysteine]
